GI50 and IC50 data for 12 molecules are collected here from patent US12679836B2, “4H-pyrrolo[3,2-c]pyridin-4-one compounds” (Bayer Aktiengesellschaft, priority 2019, dated 2026).

Common to all, as to format: cell-based
For one assay, the target named is Ba/F3-EGFR-insSVD cells (Homo sapiens, UniProt P00533, DUP768-770, cells depend on it). Kind of assay: Ba/F3 cell survival assay (Cell Titer-Glo), EGFR-insSVD. The following applies: without IL-3, with 10 ng/mL EGF, 48 h; read-out: BA/F3 (insSVD) IC50. The essentials: (§1)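 Ba/F3 cells stably expressing WT EGFR or EGFR-insSVD from retroviral transduction were grown without IL-3 on 10 ng/mL EGF. Cells were plated at 4000 cells/well, treated with compound for 48 h at 37° C, and viability was read by CellTiter-Glo luminescence.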
Ba/F3-EGFR-insSVD cells, sequence (P00533 with tags, fused parts or gaps DUP768-770): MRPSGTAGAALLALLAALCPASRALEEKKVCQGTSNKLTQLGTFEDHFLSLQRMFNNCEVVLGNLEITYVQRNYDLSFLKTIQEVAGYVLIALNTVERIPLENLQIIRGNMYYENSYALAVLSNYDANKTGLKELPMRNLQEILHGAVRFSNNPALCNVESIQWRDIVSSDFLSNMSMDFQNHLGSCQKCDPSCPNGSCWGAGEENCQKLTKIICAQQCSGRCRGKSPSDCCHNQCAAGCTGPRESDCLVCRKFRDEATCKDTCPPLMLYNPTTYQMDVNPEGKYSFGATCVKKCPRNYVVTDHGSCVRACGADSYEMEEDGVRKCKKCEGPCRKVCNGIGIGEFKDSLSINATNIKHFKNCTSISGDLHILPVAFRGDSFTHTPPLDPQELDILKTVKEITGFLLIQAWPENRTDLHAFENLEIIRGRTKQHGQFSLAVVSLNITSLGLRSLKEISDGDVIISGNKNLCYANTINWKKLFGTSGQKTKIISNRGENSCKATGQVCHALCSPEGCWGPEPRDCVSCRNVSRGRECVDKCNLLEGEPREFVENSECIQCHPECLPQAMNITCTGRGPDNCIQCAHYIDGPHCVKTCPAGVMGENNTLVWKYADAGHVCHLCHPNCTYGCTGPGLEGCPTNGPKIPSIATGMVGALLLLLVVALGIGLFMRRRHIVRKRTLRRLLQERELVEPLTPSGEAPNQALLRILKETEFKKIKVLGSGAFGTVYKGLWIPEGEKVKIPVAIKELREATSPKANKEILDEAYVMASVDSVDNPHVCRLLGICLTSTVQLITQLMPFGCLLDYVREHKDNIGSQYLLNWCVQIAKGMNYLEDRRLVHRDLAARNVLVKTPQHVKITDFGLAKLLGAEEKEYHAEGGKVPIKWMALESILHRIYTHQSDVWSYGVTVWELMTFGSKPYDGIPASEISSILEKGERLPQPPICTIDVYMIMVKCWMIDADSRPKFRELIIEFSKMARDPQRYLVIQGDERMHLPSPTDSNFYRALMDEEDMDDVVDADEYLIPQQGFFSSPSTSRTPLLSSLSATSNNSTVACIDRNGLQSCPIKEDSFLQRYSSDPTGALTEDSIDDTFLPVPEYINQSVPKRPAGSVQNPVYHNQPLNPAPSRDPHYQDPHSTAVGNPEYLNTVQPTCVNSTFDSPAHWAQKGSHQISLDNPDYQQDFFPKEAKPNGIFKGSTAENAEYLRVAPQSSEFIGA

The next assay addresses Ba/F3-EGFR-WT cells (Homo sapiens, UniProt P00533). Kind of assay: Ba/F3 cell survival assay (Cell Titer-Glo), WT EGFR. The note with it: without IL-3, with 10 ng/mL EGF, 48 h; read-out: BA/F3 (wild type) IC50. The essentials:
as §1

The target of another assay is Ba/F3-EGFR L861Q cells (Homo sapiens, UniProt P00533, L861Q, cells depend on it). Description: Ba/F3 cell survival assay, EGFR L861Q. The note with it: without IL-3, without EGF, 48 h; read-out: BA/F3 (EGFR L861Q) IC50. How it is done:
293T cells from ATCC were transfected with pBABEpuro expression constructs for mutant EGFR (V769_D770insASV, D770_N771insNPG, N771_P772insH, H773_V774insNPH, E746_A750del, L858R, D770_N771insSVD C797S, E746_A750del C797S, L858R C797S, L861Q) or mutant ERBB2 (A775_G776insYVMA) and pCL-Eco packaging vector using Fugene-6 transfection reagent from Promega. Plates were incubated at 37° C. for 48 h. Retrovirus was harvested by filtering the media supernatant through a 0.45 μm filter.
Ba/F3 cells purchased from DSMZ were grown in RPMI+10% FBS+10 ng/mL IL-3 and infected with filtered retroviral supernatant at a 1:2 dilution. Polybrene was added to a concentration of 8 μg/mL, plates were spun for 90 min, and incubated overnight at 37° C. 2 μg/mL puromycin was added to the infected cells 24 h after infection and cells were continually grown in the presence of puromycin and 10 ng/mL IL-3. Following stably expressing Ba/F3 cell lines were generated: Ba/F3-EGFR-V769_D770insASV, Ba/F3-EGFR-D770_N771insNPG, Ba/F3-EGFR-N771_P772insH, Ba/F3-EGFR-H773_V774insNPH, Ba/F3-EGFR-E746_A750del, Ba/F3-EGFR-L858R, Ba/F3-EGFR-D770_N771 insSVD C797S, Ba/F3-EGFR-E746_A750del C797S, Ba/F3-EGFR-L858R C797S, Ba/F3-EGFR L861Q and Ba/F3-ERBB2-A775_G776insYVMA (Ba/F3-vector-control).
For cell survival assays, Ba/F3 cells were grown to a density of 1-2 million cells per mL, spun down and resuspended in media without IL-3, and replated at a concentration 200,000-500,000 cells per mL. The cells ectopically expressing WT EGFR plated with 10 ng/mL Millipore Culture grade EGF and Ba/F3 cells containing mutant EGFR or Mutant ERBB2 were cultivated without EGF. The cells ectopically expressing pBABEpuro empty vector were plated with 10 ng/mL IL-3.
2 days later, cells were plated in 50 μL in a 384 well plate at a concentration of 4000 cells per well for cells assayed in the absence of IL-3 and 2000 cells per well for cells assayed in the presence of IL-3. 100 nL of compound was added to each well using a 100 nL pin head, and plates were incubated at 37° C. for 48 h.
Cell viability was measured by adding 20 μL of Cell Titer-Glo Luminescent Cell Viability Reagent diluted 1:3 in PBS. Plates were sealed with Perkin Elmer Top-Seal, inverted several times to mix, and immediately centrifuged at 1000 rpm for 2 min. Plates were incubated in low light conditions for 8-10 min and luminescence was measured.

For another assay, the system named is PC9 cells (EGFRex19del). Description: PC9 proliferation assay (Cell Titer Glo). The note with it: Homo sapiens, PC-9, 72 h. The method, then:
Cellular Data Description (PC9 Cells, EGFRex19del)
(§2) PC9 cells were purchased from ATCC. 400 PC9 cells per well were seeded in growth medium (DMEM, 10% FCS) in a 384-well plate (CORNING #3571). Seed reference plate for time zero determination on the same day. All plates were incubated overnight at 37° C. After 24 hours, test compound were added in 7-step dilution using HP Compound printer and incubated at 37° C. for 72 h. After 3 days, 30 μL/well CTG solution (Promega Cell Titer Glo solution; catalog # G755B and G756B) were added to each well, incubated for 30 minutes and the plate were read on PheraStar. Proliferation is calculated after subtracting time zero luminescence values from day 4 values and comparing to untreated wells. The IC50 values were determined using the four parameter fit.

Assay [1] relates to HCC-827 cells (EGFRex19del). Kind of assay: HCC-827 proliferation assay (Cell Titer Glo). The following applies: Homo sapiens, HCC827, 72 h. How it is done: Cellular Data Description (HCC-827 Cells, EGFRex19del)
as §2, with “HCC-827 cells” for “PC9 cells”, “[…]” for “400 PC9”, “medium (RPM11640,” for “medium (DMEM,”, “wells.” for “wells. The IC50 values were determined using the four parameter fit.”
The IC50 values were determined using the four parameter fit.

Ba/F3-EGFR L861Q cells, sequence (P00533 whole entry L861Q): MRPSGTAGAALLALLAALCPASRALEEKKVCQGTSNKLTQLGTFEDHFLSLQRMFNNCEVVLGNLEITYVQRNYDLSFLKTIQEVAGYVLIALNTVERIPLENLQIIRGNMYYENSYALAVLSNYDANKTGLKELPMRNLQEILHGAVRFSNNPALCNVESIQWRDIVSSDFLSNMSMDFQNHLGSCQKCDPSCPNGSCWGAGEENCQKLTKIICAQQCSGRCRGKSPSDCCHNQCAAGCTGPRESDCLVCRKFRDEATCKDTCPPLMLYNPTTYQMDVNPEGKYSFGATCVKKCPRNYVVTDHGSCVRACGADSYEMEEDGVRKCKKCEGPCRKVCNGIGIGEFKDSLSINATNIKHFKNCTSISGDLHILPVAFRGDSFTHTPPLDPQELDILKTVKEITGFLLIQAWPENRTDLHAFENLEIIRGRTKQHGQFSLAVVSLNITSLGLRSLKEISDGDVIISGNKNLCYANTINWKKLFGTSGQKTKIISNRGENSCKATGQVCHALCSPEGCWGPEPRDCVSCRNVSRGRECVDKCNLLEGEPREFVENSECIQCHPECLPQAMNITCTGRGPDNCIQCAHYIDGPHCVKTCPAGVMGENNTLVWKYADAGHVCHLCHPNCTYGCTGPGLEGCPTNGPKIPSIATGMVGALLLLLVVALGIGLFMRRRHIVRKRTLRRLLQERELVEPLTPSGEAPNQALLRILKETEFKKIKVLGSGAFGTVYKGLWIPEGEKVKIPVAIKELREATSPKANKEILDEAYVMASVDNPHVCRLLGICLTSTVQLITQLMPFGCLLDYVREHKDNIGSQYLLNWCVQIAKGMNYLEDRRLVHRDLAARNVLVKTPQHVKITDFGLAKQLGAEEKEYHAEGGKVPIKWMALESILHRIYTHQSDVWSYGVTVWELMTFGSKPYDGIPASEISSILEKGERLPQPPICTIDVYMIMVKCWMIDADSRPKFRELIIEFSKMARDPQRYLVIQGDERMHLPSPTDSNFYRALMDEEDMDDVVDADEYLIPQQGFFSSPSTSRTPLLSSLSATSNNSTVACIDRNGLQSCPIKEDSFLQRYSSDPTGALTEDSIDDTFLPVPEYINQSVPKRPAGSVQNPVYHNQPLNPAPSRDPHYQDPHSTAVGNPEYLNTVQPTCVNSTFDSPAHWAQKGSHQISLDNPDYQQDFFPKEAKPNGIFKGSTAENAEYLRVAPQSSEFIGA
Ba/F3-EGFR-WT cells, sequence (P00533 whole entry, change not shown): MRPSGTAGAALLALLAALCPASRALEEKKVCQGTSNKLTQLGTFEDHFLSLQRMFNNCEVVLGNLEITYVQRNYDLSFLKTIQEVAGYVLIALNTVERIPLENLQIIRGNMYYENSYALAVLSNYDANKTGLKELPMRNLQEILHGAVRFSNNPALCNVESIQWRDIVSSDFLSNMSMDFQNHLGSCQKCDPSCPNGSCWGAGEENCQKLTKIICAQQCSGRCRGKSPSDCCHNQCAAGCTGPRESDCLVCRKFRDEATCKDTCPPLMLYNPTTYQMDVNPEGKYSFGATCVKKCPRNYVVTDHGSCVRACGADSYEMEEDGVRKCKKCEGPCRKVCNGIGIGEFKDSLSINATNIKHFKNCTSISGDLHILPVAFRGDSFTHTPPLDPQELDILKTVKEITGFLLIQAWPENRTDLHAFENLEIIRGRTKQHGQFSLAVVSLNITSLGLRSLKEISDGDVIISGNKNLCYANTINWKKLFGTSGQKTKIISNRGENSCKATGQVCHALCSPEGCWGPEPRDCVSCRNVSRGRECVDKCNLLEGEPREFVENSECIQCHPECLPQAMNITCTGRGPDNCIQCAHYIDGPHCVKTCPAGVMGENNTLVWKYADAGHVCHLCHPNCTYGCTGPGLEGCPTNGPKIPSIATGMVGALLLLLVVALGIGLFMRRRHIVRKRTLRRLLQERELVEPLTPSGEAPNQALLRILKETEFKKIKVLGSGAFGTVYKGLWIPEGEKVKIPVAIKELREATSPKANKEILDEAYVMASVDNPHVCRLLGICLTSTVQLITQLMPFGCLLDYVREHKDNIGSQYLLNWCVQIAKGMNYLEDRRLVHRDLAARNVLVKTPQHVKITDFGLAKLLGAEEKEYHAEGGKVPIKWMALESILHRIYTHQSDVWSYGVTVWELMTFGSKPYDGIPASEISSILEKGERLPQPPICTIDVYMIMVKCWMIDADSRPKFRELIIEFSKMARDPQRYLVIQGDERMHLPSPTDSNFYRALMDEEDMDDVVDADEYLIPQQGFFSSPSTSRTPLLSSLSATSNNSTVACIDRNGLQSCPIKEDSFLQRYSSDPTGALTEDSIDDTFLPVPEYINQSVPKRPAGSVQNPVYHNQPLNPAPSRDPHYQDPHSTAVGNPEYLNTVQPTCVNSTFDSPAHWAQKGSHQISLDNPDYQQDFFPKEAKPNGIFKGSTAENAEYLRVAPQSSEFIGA

In the case of `COc1c(Cl)cccc1Nc1c(-c2ccncc2OC[C@@H]2COCCO2)[nH]c2c1C(=O)NCC2` (single isomer, unassigned) [Example 2], the GI50 stood at 7.12 nM on Ba/F3-EGFR-insSVD cells, 292 nM at Ba/F3-EGFR-WT cells and 14.8 nM on Ba/F3-EGFR L861Q cells. Besides, the figures for the IC50 (in the assay with PC9 cells (EGFRex19del); in assay [1]) were 0.673 nM and < 3 nM, respectively.
With `COc1c(F)cccc1Nc1c(-c2ccncc2OCC2COCCO2)[nH]c2c1C(=O)NCC2` (single isomer, unassigned) [Example 5, 2-{3-[(1,4-dioxan-2-yl)methoxy]pyridin-4-yl}-3-(3-fluoro-2-methoxyanilino)-1,5,6,7-tetrahydro-4H-pyrrolo[3,2-c]pyridin-4-one], the GI50 on Ba/F3-EGFR-insSVD cells amounted to 9.73 nM; on Ba/F3-EGFR-WT cells, 262 nM; at Ba/F3-EGFR L861Q cells, 30.9 nM.
`O=C1NCCc2[nH]c(-c3ccncc3OCC3COCCO3)c(Nc3cccc(Cl)c3Cl)c21` (single isomer, unassigned) [Example 8, 3-(2,3-dichloroanilino)-2-{3-[(1,4-dioxan-2-yl)methoxy]pyridin-4-yl}-1,5,6,7-tetrahydro-4H-pyrrolo[3,2-c]pyridin-4-one]: the GI50 came to 8.18 nM at Ba/F3-EGFR-insSVD cells, 121 nM on Ba/F3-EGFR-WT cells and 13.7 nM on Ba/F3-EGFR L861Q cells. In addition, the 50% inhibitory concentration (IC50) was 0.738 nM in the assay with PC9 cells (EGFRex19del) and < 3 nM in assay [1].
The matching figures for `COc1c(F)cccc1Nc1c(-c2ccncc2OCC2CN(C)CCO2)[nH]c2c1C(=O)NCC2` (single isomer, unassigned) [Example 14, 3-(3-fluoro-2-methoxyanilino)-2-{3-[(4-methylmorpholin-2-yl)methoxy]pyridin-4-yl}-1,5,6,7-tetrahydro-4H-pyrrolo[3,2-c]pyridin-4-one]: 10.5 nM, 387 nM, 20.1 nM, 2.12 nM and < 3 nM.
In the case of `COc1c(Cl)cccc1Nc1c(-c2ccncc2OCC2COC(C)(C)CO2)[nH]c2c1C(=O)NCC2` (single isomer, unassigned) [Example 32, 3-(3-chloro-2-methoxyanilino)-2-{3-[(5,5-dimethyl-1,4-dioxan-2-yl)methoxy]pyridin-4-yl}-1,5,6,7-tetrahydro-4H-pyrrolo[3,2-c]pyridin-4-one], the GI50 at Ba/F3-EGFR L861Q cells was 17.4 nM. Besides, the values for the half-maximal inhibitory concentration (IC50) (in the assay with PC9 cells (EGFRex19del); in assay [1]) were 1.7 nM and < 3 nM, respectively.
In the case of `Cc1c(Cl)cccc1Nc1c(-c2ccncc2OCC2COC(C)(C)CO2)[nH]c2c1C(=O)NCC2` (single isomer, unassigned) [Example 46, 3-(3-chloro-2-methyl-anilino)-2-[3-[(5,5-dimethyl-1,4-dioxan-2-yl)methoxy]-4-pyridyl]-1,5,6,7-tetrahydropyrrolo[3,2-c]pyridin-4-one], the GI50 on Ba/F3-EGFR-insSVD cells amounted to 10.1 nM; on Ba/F3-EGFR-WT cells, 376 nM; on Ba/F3-EGFR L861Q cells, 15.8 nM. Besides, the values for the IC50 (with PC9 cells (EGFRex19del); in assay [1]) were 2.89 nM and < 3 nM, respectively.
The matching figures for `Cc1c(F)cccc1Nc1c(-c2ccncc2OCC2COCCO2)[nH]c2c1C(=O)NCC2` (single isomer, unassigned) [Example 48, 2-[3-(1,4-dioxan-2-ylmethoxy)-4-pyridyl]-3-(3-fluoro-2-methyl-anilino)-1,5,6,7-tetrahydropyrrolo[3,2-c]pyridin-4-one]: 18.8 nM, 379 nM, 39.7 nM, 3.4 nM and < 3 nM.
`Cc1c(Cl)cccc1Nc1c(-c2ccncc2OC[C@H]2COCCO2)[nH]c2c1C(=O)NCC2` (single isomer, unassigned) [Example 50]: the results for the GI50 at Ba/F3-EGFR-insSVD cells, on Ba/F3-EGFR-WT cells and on Ba/F3-EGFR L861Q cells were 8.82 nM, 361 nM and 24 nM, respectively. Also, the IC50 with PC9 cells (EGFRex19del) was 6.82 nM; in assay [1], < 3 nM.
`COc1c(F)cccc1Nc1c(-c2ccncc2OC[C@@H]2COCCN2C)[nH]c2c1C(=O)NCC2` [Example 20, 3-(3-fluoro-2-methoxyanilino)-2-(3-{[(3S)-4-methylmorpholin-3-yl]methoxy}pyridin-4-yl)-1,5,6,7-tetrahydro-4H-pyrrolo[3,2-c]pyridin-4-one]: the GI50 on Ba/F3-EGFR-insSVD cells came out at 8.25 nM; at Ba/F3-EGFR-WT cells, 313 nM. The IC50 in the assay with PC9 cells (EGFRex19del) is 2.68 nM; in assay [1] it was < 3 nM.
On to `COc1c(Cl)cccc1Nc1c(-c2ccncc2OC[C@@H]2COCCN2C)[nH]c2c1C(=O)NCC2` [Example 21, 3-(3-chloro-2-methoxyanilino)-2-(3-{[(3S)-4-methylmorpholin-3-yl]methoxy}pyridin-4-yl)-1,5,6,7-tetrahydro-4H-pyrrolo[3,2-c]pyridin-4-one], for which the results for the GI50 on Ba/F3-EGFR-insSVD cells, at Ba/F3-EGFR-WT cells and at Ba/F3-EGFR L861Q cells were 3.49 nM, 341 nM and 7.34 nM, respectively. In addition, the figures for the IC50 (with PC9 cells (EGFRex19del); in assay [1]) were 1.16 nM and < 3 nM, respectively.
Taken in the same sequence, the figures for `Cc1c(Cl)cccc1Nc1c(-c2ccncc2OC[C@@H]2CN(C)CCO2)[nH]c2c1C(=O)NCC2` [Example 42, 3-(3-chloro-2-methylanilino)-2-(3-{[(2S)-4-methylmorpholin-2-yl]methoxy}pyridin-4-yl)-1,5,6,7-tetrahydro-4H-pyrrolo[3,2-c]pyridin-4-one] were 19.8 nM, 596 nM, 18.8 nM, 4.03 nM and < 3 nM.
The matching figures for `CCc1c(Cl)cccc1Nc1c(-c2ccncc2OC[C@@H]2CN(C)CCO2)[nH]c2c1C(=O)NCC2` [Example 56, 3-(3-chloro-2-ethylanilino)-2-(3-{[(2S)-4-methylmorpholin-2-yl]methoxy}pyridin-4-yl)-1,5,6,7-tetrahydro-4H-pyrrolo[3,2-c]pyridin-4-one]: 11.9 nM, 435 nM, 29.5 nM, 1.74 nM and < 3 nM.
